This is an account of results in patent US20220009914A1, “Analogs of Nitrofuran Antibiotics to Combat Resistance” (The Trustees of Indiana University, priority 2020, published 2022).

A value given as a limit tells only on which side of the number the result lay.

In experiment [1] the test system is Staphylococcus aureus strain Seattle 1945 (ATCC #25923). Description: bacterial proliferation assay, S. aureus. It is filed as cell-based. As to conditions: Staphylococcus aureus, ATCC25923; read-out: Bacterial Proliferation EC50 S. aureus. The procedure, abridged: (§1)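 BHI + 25 mg/L Ca^2+/12.5 mg/L Mg^2+, 37° C; mid-log inoculum diluted to OD600 0.01; compound 100 μM–46 nM (3-fold, 8 pts). Endpoint OD600 at mid-log, compound-only plates subtracted.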

Experiment [2] deals with Acinetobacter baumannii strain 2208 (ATCC 19606). Description: bacterial proliferation assay, A. baumannii. The conditions noted are these: ATCC19606, read-out: Bacterial Proliferation EC50 A. baumannii. It is filed as cell-based. Summed up:
as §1

The target in the next experiment is T1, E. coli GroEL/ES (Escherichia coli, UniProt P0A6F5).
T1 construct: made in house; host or cells: GroEL in NEB 5-alpha E. coli; GroES in E. coli BL21 (DE3)
Description: GroEL/ES-mediated dRho refolding assay. The format is biochemical. The procedure, abridged: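 GroEL/ES–urea-denatured rhodanese complex (100 nM GroEL, 120 nM GroES, 80 nM dRho; Tris pH 7.4 folding buffer) refolds 40 min at 37° C. after ATP addition (2.0 mM stock).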

For experiment [3], the system named is Pseudomonas aeruginosa strain NCTC 10332 (ATCC #10145). Description: bacterial proliferation assay, P. aeruginosa. It is filed as cell-based. As to conditions: read-out: Bacterial Proliferation EC50 P. aeruginosa. Summed up:
as §1

The subject of experiment [4] is Enterococcus faecium strain NCTC 7171 (ATCC #19434). As to the kind of experiment: bacterial proliferation assay, E. faecium. The conditions noted are these: read-out: Bacterial Proliferation EC50 E. faecium. It is filed as cell-based. Summed up:
as §1

T1 sequence (P0A6F5 2-548): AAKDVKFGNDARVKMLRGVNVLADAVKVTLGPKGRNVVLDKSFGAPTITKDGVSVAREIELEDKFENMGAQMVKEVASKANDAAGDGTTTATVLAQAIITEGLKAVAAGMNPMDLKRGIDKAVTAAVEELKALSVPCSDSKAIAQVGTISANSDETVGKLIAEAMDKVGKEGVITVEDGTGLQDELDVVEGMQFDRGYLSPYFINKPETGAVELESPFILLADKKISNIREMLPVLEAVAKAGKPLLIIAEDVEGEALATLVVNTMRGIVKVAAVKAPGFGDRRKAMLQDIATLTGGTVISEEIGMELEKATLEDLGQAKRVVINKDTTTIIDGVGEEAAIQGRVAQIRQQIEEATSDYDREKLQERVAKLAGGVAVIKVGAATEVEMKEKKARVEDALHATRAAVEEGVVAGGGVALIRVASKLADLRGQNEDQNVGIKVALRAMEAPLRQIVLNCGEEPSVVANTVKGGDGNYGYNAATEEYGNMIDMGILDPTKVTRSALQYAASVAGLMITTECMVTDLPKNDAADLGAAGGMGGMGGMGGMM

For the compound `COc1ccc(C(=O)NN)cc1` [Compound 42, reference compound], the EC50 in experiment [1], in experiment [2], in experiment [3] and in experiment [4] was > 100 µM in each case. Moreover, at E. coli GroEL/ES, the IC50 was > 250 µM.

Take `O=C(N/N=C/c1ccc(O)cc1)c1ccccc1` [Compound 36, N′-(4-hydroxybenzylidene)benzohydrazide]: the EC50 in experiment [1], in experiment [2], in experiment [3] and in experiment [4] was > 100 µM in each case. At E. coli GroEL/ES, the half-maximal inhibitory concentration (IC50) was > 250 µM.

Regarding `O=C(N/N=C/c1ccc(O)c2ncccc12)c1ccccc1Oc1ccccc1` [Compound 10, N′-((8-hydroxyquinolin-5-yl)methylene)-2-phenoxybenzohydrazide], the EC50 is > 100 µM in experiment [1], > 100 µM in experiment [2], 81 µM in experiment [3] and > 100 µM in experiment [4]. The same compound displayed an IC50 against E. coli GroEL/ES of 4.5 µM.

One may read the IC50 as the point on the concentration scale where inhibition reaches its midpoint. A low value points to higher potency.
